In US20100080862A1, “COMPOSITIONS AND FOODS FOR IMPROVING LIPID METABOLISM” (Kirin Beer Kabushiki Kaisha, priority 2002, published 2010):

Experiments:
[1] = target: T1, fused protein of PPARγ with yeast Gal4 protein (Homo sapiens, UniProt P37231); experiment: PPARγ agonist screening system consisting of a fused protein, Gal4 luciferase reporter in CV-1 cells (Example 10); assay type: cell-based; conditions: humulone compounds at 1, 3, and 10 μM, 48 hours
T1 construct: 204a.a.-505a.a) was cloned; expressed in transfected cells; host or cells: CV-1 cells
T1 sequence (P37231 204-505): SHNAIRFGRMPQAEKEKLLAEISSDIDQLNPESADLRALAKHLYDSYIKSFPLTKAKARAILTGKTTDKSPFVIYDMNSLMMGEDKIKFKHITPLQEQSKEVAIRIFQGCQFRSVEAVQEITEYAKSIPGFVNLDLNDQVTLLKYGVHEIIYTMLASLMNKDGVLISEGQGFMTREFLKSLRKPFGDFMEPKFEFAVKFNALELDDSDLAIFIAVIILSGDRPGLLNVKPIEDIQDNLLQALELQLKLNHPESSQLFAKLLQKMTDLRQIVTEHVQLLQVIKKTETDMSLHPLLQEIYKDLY
Text: In order to construct a human PPARγ expression plasmid, a PPARγ ligand binding domain (LBD; 204a.a.-505a.a) was cloned from the human heart cDNA library (Gibco). After the sequence was confirmed, the cloned ORF was ligated to the BamHI-Kpn1 site of the expression vector pBind (Promega) to construct the expression vector pGR-Gal4-PPARγ which expresses a fused protein of PPARγ with yeast Gal4 protein. The sequences of primers used for the cloning are as follows: […]
Next, an N terminal sequence (1a.a-76a.a) of the human glucocorticoid receptor (GR) was ligated to the N-terminal of the Gal4 region of pBind so that the reading frame coincided with Gal4. The GR was cloned from the heart cDNA library (Gibco) using PCR. The sequences of primers used for the cloning are as follows: […]
As a reporter plasmid, firefly luciferase expression vector pG5luc (Promega) having 5 copies of the Gal4 binding site introduced into the promoter region was used. CV-1 cells were transfected with the pGR-Gal4-PPARγ and the pG5luc using Lipofect AMINE (Gibco). After the transfection, the medium was replaced with a medium (DMEN, Gibco) with addition of a test sample or control (pioglitazone), and cells were recovered after cultivation for 48 hours. After the cell recovery, cell lysate was prepared using a Dual-Luciferase reporter assay system (Promega) to measure firefly luciferase activity using a luminometer (Luminous CT-9000D, DIA-IATRON). Further, the protein concentration of the cell lysate was measured using a Dc Protein assay (BIO-RAD) to standardize the value of firefly luciferase activity for the protein concentration. The result was expressed as a relative value by setting the value of the negative control to be 1.

human PPARγ = experiment: PPARγ agonist screening system, PPRE luciferase reporter in CV-1 cells (Example 9); assay type: cell-based; conditions: for PPARγ/RXR alpha activating activity compared to that with 1 μM pioglitazone: at a concentration of 10 μm; for PPARγ/RXR alpha activating activity (relative luciferase activity): concentrations of 1, 5, 10, and 50 μM, 48 hours
Text: In order to construct a human PPARγ expression plasmid, a PPARγ ORF was cloned from the human heart cDNA library (Gibco). After the sequence was confirmed, the cloned ORF was ligated to the NheI-SalI site of the expression vector pCI neo (Promega). The sequences of primers used for the cloning were as follows: […]
Next, in order to construct a reporter plasmid, oligo DNAs having 3 copies of PPRE was constructed and inserted at the KpnI-BglII site of the firefly luciferase reporter vector pGL3-promoter vector (Promega), after which the sequences were confirmed. The sequences of oligo-DNAs containing PPRE are as follows:
CV-1 cells were transfected with the above-mentioned plasmid along with the renilla luciferase reporter vector pRL-SV40 vector for compensation (Promega) using Lipofect AMINE (Gibco). The CV-1 cells used were cultured at a concentration of 5×10^4 cells/ml in 2 ml of DMEM (Gibco) supplemented with 10% fetal calf serum (Gibco) and penicillin-streptomycin (10000 units and 1 mg/ml, respectively; Gibco) on a 12-well plate at 37° C. in an atmosphere of 5% CO2 on the day before transfection. After the transfection, cells for the positive control were cultured in the abovementioned DMEM medium containing 1 μm pioglitazone (Takeda). After cultivating for 48 hours, the cells were recovered and the lysate was prepared using a Dual-Luciferase reporter assay system (Promega) to measure firefly luciferase and renilla luciferase activity using a luminometer (Luminous CT-9000D, DIA-IATRON). Relative luciferase activity was obtained by dividing the value for firefly luciferase activity by the value for renilla luciferase activity.

C57BL/6 mice (females) = experiment: Improving effect of fractionated lupulone on lipid metabolism in mice (Example 14); assay type: in vivo
Method: Improving effect of a fractionated lupulone on lipid metabolism was evaluated using C57BL/6 mice (females). Namely, lupulone was purified from hop pellets (CAS pellets, a product of Saaz, Czech Republic). About 2.5 kg of hop pellets were extracted with 4 L of ethyl acetate 3 times and the extract was concentrated under the reduced pressure to obtain a dark green extract (329.17 g). A portion of the extract (262.7 g) was applied on a silica gel column for fractionation. Chromatography was carried out using a stepwise elution with a hexane-ethyl acetate mixed solution to obtain 15 fractions. The third fraction (41.8 g) was applied on a silica gel column for refractionation and a fraction eluted with a hexane:ethyl acetate (20:1) solution was recrystallized to obtain lupulone (1.88 g, white needle crystals, yield: about 0.094%). Further, 5-week-old C57BL/6NCrj female mice (8 per group) (Japan Charles River) were fed CE2 (Japan Clea) and water for 1 week ad libitum. Then, the animals were divided into 2 groups, i.e., a group fed AIN76A (described in Example 2) with addition of 0.2% cholesterol and 0.3% cellulose (referred to as “group C” hereinafter) and a group fed AIN76A with addition of 0.2% cholesterol and 0.3% lupulone (referred to as “group L” hereinafter). The diets were prepared and administered according to the methods described in Example 2. One week after feeding the test diets, the animals were dissected under non-fasting conditions.

[2] = system: C57BL/6 mice fed high fat diet; experiment: Oral glucose tolerance test in mice with high fat diet-induced insulin resistance (Example 15); assay type: in vivo
Method: C57BL/6 mice were fed the high fat diet shown in Example 8 for 12 weeks to induce insulin resistance and then orally administered with the water soluble hop extract for 10 consecutive days (100 and 330 mg/kg/day). After completion of the administration, animals were fasted for 16 hours and then subjected to an oral glucose tolerance test (OGTT). […] After completion of the administration, animals were fasted for 16 hours and then subjected to an oral glucose tolerance test (OGTT). In OGTT, after blood sampling and blood sugar measurement, 1 g/kg of aqueous glucose solution was administered (at time zero), after which blood sampling and blood sugar measurement were carried out at 15, 30, and 60 minutes and blood sugar measurement was carried out at 120 minutes. Change with time in the blood insulin level was measured using an insulin measuring kit (Morinaga Seikagaku Institute).

[3] = purified isocohumulone 10 and 30 mg/kg/day oral, 10 days

With `CC(C)=CCC1=C(O)[C@](O)(CC=C(C)C)C(=O)C(C(=O)CC(C)C)=C1O` [humulones, humulone] as the compound, how does the “PPARγ activating activity (firefly luciferase, relative to negative control)” value [1] read?
The value was “activity was confirmed”.

What about the “PPARγ/RXR alpha activating activity compared to that with 1 μM pioglitazone” value (human PPARγ) of the same compound?
Its value is “almost equivalent”.

What about the “PPARγ/RXR alpha activating activity (relative luciferase activity)” value (human PPARγ) of the same compound?
The value was “exhibited the activity”.

With `CC(C)=CCC1=C(O)C(O)(CC=C(C)C)C(=O)C(C(=O)C(C)C)=C1O` (stereo not drawn) [cohumulones, cohumulone] as the compound, how does the “PPARγ activating activity (firefly luciferase, relative to negative control)” value [1] read?
Its value is “activity was confirmed”.

What about the “PPARγ/RXR alpha activating activity compared to that with 1 μM pioglitazone” value (human PPARγ) of the same compound?
Its value is “almost equivalent”.

And the “PPARγ/RXR alpha activating activity (relative luciferase activity)” value (human PPARγ)?
Its value is “exhibited the activity”.

With `CC(C)=CCC1=C(O)C(CC=C(C)C)(CC=C(C)C)C(=O)C(C(=O)CC(C)C)=C1O` [lupulone] as the compound, how does the “cholesterol content per g of liver” value (C57BL/6 mice (females); group L 0.3% lupulone in AIN76A + 0.2% cholesterol, one week, non-fasting) read?
The value was “significant decrease”.

And the body weight (C57BL/6 mice (females); group L 0.3% lupulone in diet)?
Its body weight is “significant decrease”.

What about the “body weight gain per calorie intake” value (C57BL/6 mice (females); group L 0.3% lupulone in diet) of the same compound?
Its value is “significantly reduced”.

Which “insulin resistance (blood insulin concentration upon OGTT)” value ([2]; oral, 10 consecutive days, water soluble extract 100 and 330 mg/kg/day, purified isocohumulone 10 and 30 mg/kg/day) does the source give for `CC(C)=CCC(=O)C1(O)C(O)=C(C(=O)C(C)C)C(=O)C1CC=C(C)C` (stereo not drawn) [isocohumulones, isocohumulone] here?
The value was “amelioration”.

What about the “glucose tolerance (blood sugar level upon OGTT)” value ([2]; oral, 10 consecutive days, water soluble extract 100 and 330 mg/kg/day, purified isocohumulone 10 and 30 mg/kg/day, 1 g/kg glucose after 16 h fasting) of the same compound?
Its value is “Amelioration”.

And the “insulin concentration before the administration (of glucose)” value [2, 3]?
The value was “significantly decreased”.

What about the “insulin concentration thereafter (after glucose administration)” value [2, 3] of the same compound?
Its value is “tended to keep decreasing”.

And the “PPARγ activating activity (firefly luciferase, relative to negative control)” value [1]?
Its value is “activity was confirmed”.

What about the “PPARγ/RXR alpha activating activity compared to that with 1 μM pioglitazone” value (human PPARγ) of the same compound?
The value was “almost equivalent”.

And the “PPARγ/RXR alpha activating activity (relative luciferase activity)” value (human PPARγ)?
The value was “exhibited the activity”.

How did the “PPARγ/RXR alpha activating activity compared to that with 1 μM pioglitazone” value (human PPARγ) turn out when `CCC(C)C(=O)C1=C(O)C(O)(C(=O)CC=C(C)C)C(CC=C(C)C)C1=O` (stereo not drawn) [isoadhumulones, isoadhumulone] was run?
The value was “almost equivalent”.

What about the “PPARγ/RXR alpha activating activity (relative luciferase activity)” value (human PPARγ) of the same compound?
The value was “exhibited the activity”.

With `CC(C)=CCC(=O)C1(O)C(O)=C(C(=O)CC(C)C)C(=O)C1CC=C(C)C` (stereo not drawn) [isohumulones, isohumulone] as the compound, how does the “PPARγ activating activity (firefly luciferase, relative to negative control)” value [1] read?
The value was “activity was confirmed”.

What about the “PPARγ/RXR alpha activating activity compared to that with 1 μM pioglitazone” value (human PPARγ) of the same compound?
The value was “almost equivalent”.

What about the “PPARγ/RXR alpha activating activity (relative luciferase activity)” value (human PPARγ) of the same compound?
Its value is “exhibited the activity”.
